Results: PubChem BioAssay (NCI)
Several values for one entry are separate records, joined by “and”; a condition that tells them apart may be missing. Identical values can stand only once.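 How tested: cells in 96-well plates exposed to compound for 48 hours at five concentrations. Abbreviation: GI50, concentration required for 50% inhibition of growth. TGI marks complete inhibition of growth.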

Key:
Test in all cases: NCI anticancer screen, dose series, 48 h
OVCAR-8 ovarian = system: OVCAR-8 ovarian
HT29 colon = system: HT29 colon
SF-539 CNS = system: SF-539 CNS
MDA-MB-231 breast = system: MDA-MB-231 breast
PC-3 prostate = system: PC-3 prostate
NCI-H460 lung = system: NCI-H460 lung
RXF 393 renal = system: RXF 393 renal
MOLT-4 leukemia = system: MOLT-4 leukemia
U251 CNS = system: U251 CNS
SN12C renal = system: SN12C renal
MDA-N = system: MDA-N

SMILES	TGI (OVCAR-8 ovarian)	TGI (HT29 colon) [µM]	TGI (SF-539 CNS)	TGI (MDA-MB-231 breast)	TGI (PC-3 prostate)	TGI (NCI-H460 lung)	TGI (RXF 393 renal)	TGI (MOLT-4 leukemia)	TGI (U251 CNS)	TGI (SN12C renal)	TGI (MDA-N) [µM]	GI50 (OVCAR-8 ovarian) [µM]	GI50 (SF-539 CNS) [µM]	GI50 (MDA-MB-231 breast) [µM]	GI50 (NCI-H460 lung) [µM]	GI50 (RXF 393 renal) [µM]	GI50 (MOLT-4 leukemia) [µM]	GI50 (U251 CNS) [µM]	GI50 (SN12C renal) [µM]	GI50 (MDA-N) [µM]
CC1(C)CC(=O)c2c(-c3ccc(Cl)cc3)c(C#N)c(=S)n(C3OC(CO)C(O)C(O)C3O)c2C1 (centres undefined)	> 100 µM	> 100	> 100 µM	> 100 µM	52.1 µM	> 100 µM	> 100 µM	> 100 µM	> 100 µM	> 100 µM	58.3	–	–	–	–	–	–	–	–	–
COc1ccc2nc3c4c(nccc4c2c1)-c1ncccc1C3=O	6.55 µM	1.14	0.56 µM	3.94 µM	3.14 µM	0.119 µM	1.02 µM	5.31 µM	1.75 µM	0.298 µM	0.128	–	–	–	–	–	–	–	–	–
Cn1c2ncccc2n2c(=O)cc(O)cc12	> 100 µM	> 100	> 100 µM	> 100 µM	> 100 µM	> 100 µM	75.5 µM	60.1 µM	> 100 µM	–	> 100	–	–	–	–	–	–	–	–	–
CC(C)(C)OC(=O)N(O)CCCn1cnc2c(NC3CC3)ncnc21	> 100 µM	> 100	> 100 µM	> 100 µM	> 100 µM	> 100 µM	> 100 µM	> 100 µM	> 100 µM	> 100 µM	> 100	–	–	–	–	–	–	–	–	–
O=C(Nc1ccccc1)OCCN=c1c2ccccc2ccc2ccccc12	84 µM	38.8	37 µM	> 100 µM	49.4 µM	59.1 µM	75.9 µM	42.6 µM	69.9 µM	> 100 µM	39	–	–	–	–	–	–	–	–	–
COc1ccc(/C(C)=C2\CCCN(Cc3ccccc3)C2)cc1	35.9 µM	39.5	35.2 µM	57.9 µM	62.7 µM	53.5 µM	43.2 µM	59.8 µM	40.3 µM	–	47.7	–	–	–	–	–	–	–	–	–
CCOC(=O)c1ccc(N=C2Sc3nc4ccccc4n3C2=Nc2ccc(C(=O)OCC)cc2)cc1	89.7 µM	> 100	41.6 µM	52.5 µM	> 100 µM	69.6 µM	59.3 µM	> 100 µM	–	> 100 µM	65	–	–	–	–	–	–	–	–	–
CCC1(c2ccc(OC)c(OC)c2)CCN(S(=O)(=O)c2ccc(C)cc2)C1 (centres undefined)	–	> 100	> 100 µM	> 100 µM	> 100 µM	> 100 µM	> 100 µM	64.1 µM	> 100 µM	> 100 µM	> 100	–	–	–	–	–	–	–	–	–
CCC1=CC(OCc2ccccc2)C(CCN(Cc2ccccc2)C(=O)OCc2ccccc2)C1 (centres undefined)	32.8 µM	37.6	49.1 µM	62.6 µM	42.9 µM	39.7 µM	17.7 µM	46.5 µM	62 µM	–	54.1	–	–	–	–	–	–	–	–	–
COC(=O)CN1Cc2cc(C)cc(c2O)CN(CC(=O)OC)Cc2cc(C)cc(c2O)CN(CC(=O)OC)Cc2cc(C)cc(c2O)CN(CC(=O)OC)Cc2cc(C)cc(c2O)C1	50 µM and > 100 µM	50	50 µM and > 100 µM	50 µM and > 100 µM	50 µM and > 100 µM	50 µM and > 100 µM	28.6 µM and > 100 µM	50 µM and > 100 µM	50 µM and > 100 µM	50 µM and > 100 µM	> 100	18.7	37.3	34.7	21.7	36.1	39.8	30.9	51.6	84.1
CC(=O)N1C(c2[nH]c3ccccc3c2Cc2ccccc2)CCN1c1ccccc1 (centres undefined)	> 10 µM	> 10	> 10 µM	> 10 µM	> 10 µM	> 10 µM	> 10 µM	> 10 µM	–	> 10 µM	> 10	–	–	–	–	–	–	–	–	–
O=C1c2ccccc2C(=O)c2c1oc1cc(O)c(Cl)cc21	23.4 µM	3.89	16.1 µM	33.9 µM	29.6 µM	9.89 µM	24.5 µM	> 62.5 µM	22.3 µM	22.5 µM	3.35	–	–	–	–	–	–	–	–	–
CN1N=C(c2ccncc2)OC1c1cccc(F)c1 (centres undefined)	> 100 µM	> 100	> 100 µM	> 100 µM	> 100 µM	> 100 µM	> 100 µM	> 100 µM	> 100 µM	> 100 µM	> 100	–	–	–	–	–	–	–	–	–
COC1(OC)CCN(Cc2ccccc2)C1=O	17.9 µM	21.4	28.6 µM	38.8 µM	27.8 µM	41.2 µM	26.4 µM	> 100 µM	34.1 µM	22.1 µM	22.6	–	–	–	–	–	–	–	–	–
COc1ccc(OC(=O)N2C/C(=C\c3ccccc3)C(=O)/C(=C/c3ccccc3)C2)cc1	7.57 µM	3.73	22.5 µM	7.83 µM	11.2 µM	13.7 µM	8.71 µM	8.06 µM	8.87 µM	5.83 µM	3.47	–	–	–	–	–	–	–	–	–
CC/C(Cl)=N\OC(=O)Nc1ccc(F)c(Cl)c1	36.8 µM	55.2	37.3 µM	41.5 µM	29.6 µM	34.3 µM	34.5 µM	2.11 µM	33.9 µM	40.2 µM	33.4	–	–	–	–	–	–	–	–	–
